Earlier results, collected in patent US7501409B2, “Preparations for oral administration” (Mitsubishi Tanabe Pharma Corporation, priority 2000, dated 2009).
Counter-ions that a name gives are not always drawn. Like-named read-outs stand apart in the source and are kept apart here.

solubility (pH 1.2): 2520 µg/mL | solubility (pH 6.8): 110 µg/mL
Compound: CCCc1nn(C)c2c(=O)[nH]c(-c3cc(S(=O)(=O)N4CCN(C)CC4)ccc3OCC)nc12 [sildenafil citrate]
